# Experimental data as given in patent US11191746B2, “Composition for inhibiting a growth of cancer stem cells comprising ciclesonide” (JEJU NATIONAL UNIVERSITY INDUSTRY-ACADEMIC COOPERATION …, priority 2016, dated 2021).
# Key:
# Type in all cases: cell-based, human
# [1] = test system: MCF-7 cell-derived mammospheres; test: Mammosphere formation; settings: MCF-7 mammospheres, 80 μM
# Procedure: (§1) Human breast cancer cells, MCF-7, were obtained from American Type Culture Collection (ATCC; Manassas, Va., USA). MCF-7 cells and MDA-MB-231 cells were cultured in Dulbecco's Modified Essential Medium (DMEM; Hyclone, Logan, Utah, USA) containing 10% fetal bovine serum (FBS; Hyclone), 100 U/ml of penicillin, and 100 μg/ml of streptomycin (Hyclone). The MCF-7 cells were maintained in a humidified incubator containing 5% CO2 at 37° C. The cells were plated in 10 cm culture dishes at a density of 1×10^6 cells. To establish primary mammospheres, single cell-suspended MCF-7 cells were inoculated into ultra-low attachment 6-well plates containing 2 ml of complete MammoCult™ medium (StemCell Technologies, Vancouver, BC, Canada) at a density of 3.5 to 4×10^4 cells/well. The complete MammoCult™ medium was supplemented with 4 μg/ml of heparin, 0.48 μg/ml of hydrocortisone, 100 U/ml of penicillin, and 100 μg/ml of streptomycin. The cells were incubated in a 5% CO2 incubator at 37° C. for 7 days.
# (§2) On day 10 of culture, cell culture plates were placed on a scanner (Epson Perfection V700 PHOTO, Epson Korea, Co, Seoul, Korea) to obtain 8-bit gray scale images of mammospheres. The images were acquired using a NICE software program downloaded from ftp://ftp.nist.gov/pub/physics/mlclarke/NICE at a low resolution of 300 dpi. For counting, a desired number of rows and columns (e.g., 2×3 for a 6-well plate) were selected to generate ROIs and after selecting the elliptical setting of the NICE program, the individual ROIs were defined by adjusting the movement and size of the provided ROI shapes. The background signals of the images were negated using a threshold algorithm, and the selected images were automatically counted. To analyze the formation of mammospheres, mammosphere formation efficiency (MFE, %) was determined by the following equation: MFE (%)=the number of mammospheres per well/a total number of plated cells per well×100.
# [2] = test system: MDA-MB-231 cell-derived mammospheres; test: Mammosphere formation; settings: MDA-MB-231 mammospheres, 80 μM
# Procedure: as §1, §2
# [3] = test system: A549 cell-derived tumorspheres; test: Tumorsphere formation; settings: A549 tumorspheres
# Procedure: Human lung cancer cells, A549, were cultured under the same culture conditions as those for the breast cancer cells of Example 2-1. To establish primary tumorspheres, single cell-suspended A549 cells were inoculated into ultra-low attachment 6-well plates containing 2 ml of Cancer Stem Premium medium (ProMab Biotechnologies Inc, Richmond, Calif., USA) at a density of 5×10^4 cells/well. The cells were incubated in a 5% CO2 incubator at 37° C. for 10 days.
# Lung cancer tumorspheres were counted in the same manner as in Example 3-1, and for the analysis of tumorsphere formation, tumorsphere formation efficiency (TFE, %) was determined by the following equation: TFE (%)=number of tumorspheres per well/total number of plated cells per well×100.
Molecule,growth of breast cancer stem cells [1],growth of breast cancer stem cells [2],lung cancer stem cell inhibitory activity ([3]; 80 μM),lung cancer stem cell inhibitory activity ([3]; 5 μM and 10 μM)
C[C@]12C=CC(=O)C=C1CC[C@@H]1[C@@H]2C(=O)C[C@@]2(C)[C@H]1CC[C@]2(O)C(=O)CO [prednisone],unable to inhibit,unable to inhibit,did not exhibit a lung cancer stem cell inhibitory activity,
isobutyryl ciclesonide,,,,exhibited a lung cancer stem cell inhibitory activity
